According to US8193221B2, “Insecticidal compounds” (Syngenta Crop Protection LLC, priority 2007, dated 2012):
Read-outs that look alike come from different tables or passages of the source.

Columns and labels:
Assay type in all cases: in vivo
Plutella xylostella = Plutella xylostella (diamond back moth) larval test on artificial diet; details: same protocol, 200 ppm
Procedure: Plutella xylostella (Diamond Back Moth):
24-well microtiter plate (MTP) with artificial diet was treated with test solutions at an application rate of 200 ppm (concentration in well 18 ppm) by pipetting. After drying, the MTP's were infested with L2 larvae (7-12 per well). After an incubation period of 6 days, samples were checked for larval mortality and growth regulation.

Diabrotica balteata = Diabrotica balteata (corn root worm) larval test on artificial diet; details: same protocol, 200 ppm
Procedure: Diabrotica balteata (Corn Root Worm):
A 24-well microtiter plate (MTP) with artificial diet was treated with test solutions at an application rate of 200 ppm (concentration in well 18 ppm) by pipetting. After drying, the MTP's were infested with L2 larvae (6-10 per well). After an incubation period of 5 days, samples were checked for larval mortality and growth regulation.

Heliothis virescens = Heliothis virescens (tobacco budworm) egg test on artificial diet; details: same protocol, 200 ppm
Procedure: Heliothis virescens (Tobacco Budworm):
Eggs (0-24 h old) were placed in 24-well microtiter plate on artificial diet and treated with test solutions at an application rate of 200 ppm (concentration in well 18 ppm) by pipetting. After an incubation period of 4 days, samples were checked for egg mortality, larval mortality, and growth regulation.

Thrips tabaci = Thrips tabaci (onion thrips) sunflower leaf disc spray test; details: same protocol, 200 ppm
Procedure: Thrips tabaci (Onion Trips):
Sunflower leaf discs were placed on agar in a 24-well microtiter plate and sprayed with test solutions at an application rate of 200 ppm. After drying, the leaf discs were infested with an […] population of mixed ages. After an incubation period of 7 days, samples were checked for mortality.

Spodoptera littoralis = Spodoptera littoralis (Egyptian cotton leafworm) cotton leaf disc spray test; details: for damage to the test organisms: same protocol, 200 ppm; for pest or weed control at 200 ppm: foliar, 72 h, read-out: control of Spodoptera littoralis
Source text: Spodoptera littoralis (Egyptian Cotton Leafworm):
Cotton leaf discs were placed on agar in a 24-well microtiter plate and sprayed with test solutions at an application rate of 200 ppm. After drying, the leaf discs were infested with 5 L1 larvae. The samples were checked for mortality, feeding behavior, and growth regulation 3 days after treatment (DAT).

Tetranychus urticae = Tetranychus urticae (two-spotted spider mite) bean leaf disc spray test; details: same protocol, 200 ppm
Source text: Tetranychus urticae (Two-Spotted Spider Mite):
Bean leaf discs on agar in 24-well microtiter plates were sprayed with test solutions at an application rate of 200 ppm. After drying, the leaf discs are infested with mite populations of mixed ages. 8 days later, discs are checked for egg mortality, larval mortality, and adult mortality.

[1] = 200 ppm sprayed on cotton leaf discs, L1 larvae, mortality, feeding behavior, growth regulation 3 DAT

| SMILES | damage to the test organisms (Plutella xylostella) | damage to the test organisms (Diabrotica balteata) | damage to the test organisms (Heliothis virescens) | damage to the test organisms (Thrips tabaci) | damage to the test organisms (Spodoptera littoralis) | damage to the test organisms (Tetranychus urticae) | pest or weed control at 200 ppm (Spodoptera littoralis; [1]) [%] | pest or weed control at 200 ppm (Spodoptera littoralis) [%] |
| --- | --- | --- | --- | --- | --- | --- | --- | --- |
| CCOC(=O)c1ccc(CONC(=N)c2ccc(C3=NOC(c4cc(Cl)cc(Cl)c4)(C(F)(F)F)C3)cc2C)o1 (centres unmarked) [Compound A33] | little or no damage | little or no damage | little or no damage | little or no damage | little or no damage | little or no damage | – | – |
| Cc1cc(C2=NOC(c3cc(Cl)cc(Cl)c3)(C(F)(F)F)C2)ccc1C(=N)NOC(C)C(=O)Nc1ccccc1 (centres unmarked) [Compound A24] | little or no damage | little or no damage | little or no damage | little or no damage | little or no damage | little or no damage | – | – |
| [H]/N=C(\NOCC#CC)c1ccc(C2=NOC(c3cc(Cl)cc(Cl)c3)(C(F)(F)F)C2)cc1C (centres unmarked) [Compound A25] | – | – | – | – | – | – | ≥ 80 | – |
| Cc1cc(C2=NOC(c3cc(Cl)cc(Cl)c3)(C(F)(F)F)C2)ccc1C(=N)NOCc1sc(Cl)nc1C(F)(F)F (centres unmarked) [Compound A32] | little or no damage | little or no damage | little or no damage | little or no damage | little or no damage | little or no damage | – | – |
| [H]/N=C(\NOCC=C)c1ccc(C2=NOC(c3cc(Cl)cc(Cl)c3)(C(F)(F)F)C2)cc1C (centres unmarked) [Compound A5] | – | – | – | – | – | – | ≥ 80 | – |
| [H]/N=C(\NOCCCC)c1ccc(C2=NOC(c3cc(Cl)cc(Cl)c3)(C(F)(F)F)C2)cc1C (centres unmarked) [Compound A6] | – | – | – | – | – | – | ≥ 80 | – |
| Cc1cc(C2=NOC(c3cc(Cl)cc(Cl)c3)(C(F)(F)F)C2)ccc1C(=N)NOCC1CCCCC1 (centres unmarked) [Compound A26] | little or no damage | little or no damage | little or no damage | little or no damage | little or no damage | little or no damage | – | – |
| [H]/N=C(\NOCC)c1ccc(C2=NOC(c3cc(Cl)cc(Cl)c3)(C(F)(F)F)C2)cc1C (centres unmarked) [Compound A4] | – | – | – | – | – | – | ≥ 80 | – |
| C#CCONC(=N)c1ccc(C2=NOC(c3cc(Cl)cc(Cl)c3)(C(F)(F)F)C2)cc1C (centres unmarked) [Compound A2, 4-[5-(3,5-dichloro-phenyl)-5-trifluoromethyl-4,5-dihydro-isoxazol-3-yl]-2-methyl-N-prop-2-ynyloxy-benzamidine] | – | – | – | – | – | – | – | ≥ 80 |
| Cc1cc(C2=NOC(c3cc(Cl)cc(Cl)c3)(C(F)(F)F)C2)ccc1C(=N)NOCc1cc(Cl)cc2c1OCOC2 (centres unmarked) [Compound A19] | little or no damage | little or no damage | little or no damage | little or no damage | little or no damage | little or no damage | – | – |
| [H]/N=C(\NOCCC)c1ccc(C2=NOC(c3cc(Cl)cc(Cl)c3)(C(F)(F)F)C2)cc1C (centres unmarked) [Compound A27] | – | – | – | – | – | – | ≥ 80 | – |
| Cc1cc(C2=NOC(c3cc(Cl)cc(Cl)c3)(C(F)(F)F)C2)ccc1C(=N)NOCC1CCCCO1 (centres unmarked) [Compound A14] | little or no damage | little or no damage | little or no damage | little or no damage | little or no damage | little or no damage | – | – |
| CCOC(=O)/C=C/CONC(=N)c1ccc(C2=NOC(c3cc(Cl)cc(Cl)c3)(C(F)(F)F)C2)cc1C (centres unmarked) [Compound A13] | little or no damage | little or no damage | little or no damage | little or no damage | little or no damage | little or no damage | – | – |
| Cc1cc(C2=NOC(c3cc(Cl)cc(Cl)c3)(C(F)(F)F)C2)ccc1/C(N)=N/O (centres unmarked) [Compound A1, 4-[5-(3,5-dichloro-phenyl)-5-trifluoromethyl-4,5-dihydro-isoxazol-3-yl]-N-hydroxy-2-methyl-benzamidine] | – | – | – | – | – | – | ≥ 80 | – |
| [H]/N=C(\NOC)c1ccc(C2=NOC(c3cc(Cl)cc(Cl)c3)(C(F)(F)F)C2)cc1C (centres unmarked) [Compound A3] | – | – | – | – | – | – | ≥ 80 | – |
| COc1ccc(C(=O)CONC(=N)c2ccc(C3=NOC(c4cc(Cl)cc(Cl)c4)(C(F)(F)F)C3)cc2C)cc1 (centres unmarked) [Compound A28] | little or no damage | little or no damage | little or no damage | little or no damage | little or no damage | little or no damage | – | – |
